Data reported in ChEMBL document CHEMBL2390846, “Small-molecule pyrimidine inhibitors of the cdc2-like (Clk) and dual specificity tyrosine phosphorylation-regulated (Dyrk) kinases: development of chemical probe ML315” (Bioorg Med Chem Lett, 2013).
One block for each molecule: values may come before it.

Legend:
[1] = target: T1, Dual specificity protein kinase CLK4 (Homo sapiens, UniProt Q9HAZ1); assay: Inhibition of CLK4 (unknown origin) by bioluminescence assay
[2] = target: T2, Dual specificity tyrosine-phosphorylation-regulated kinase 1A (Homo sapiens, UniProt Q13627); assay: Inhibition of DYRK1A (unknown origin) by bioluminescence assay
[3] = target: Dual specificity tyrosine-phosphorylation-regulated kinase 1B (Homo sapiens, UniProt Q9Y463)
[4] = target: Dual specificity protein kinase CLK1 (Homo sapiens, UniProt P49759)
[5] = target: T2, Dual specificity tyrosine-phosphorylation-regulated kinase 1A
[6] = target: Dual specificity protein kinase CLK2 (Homo sapiens, UniProt P49760)
[7] = target: T1, Dual specificity protein kinase CLK4

Dual specificity protein kinase CLK1, sequence (P49759 whole entry): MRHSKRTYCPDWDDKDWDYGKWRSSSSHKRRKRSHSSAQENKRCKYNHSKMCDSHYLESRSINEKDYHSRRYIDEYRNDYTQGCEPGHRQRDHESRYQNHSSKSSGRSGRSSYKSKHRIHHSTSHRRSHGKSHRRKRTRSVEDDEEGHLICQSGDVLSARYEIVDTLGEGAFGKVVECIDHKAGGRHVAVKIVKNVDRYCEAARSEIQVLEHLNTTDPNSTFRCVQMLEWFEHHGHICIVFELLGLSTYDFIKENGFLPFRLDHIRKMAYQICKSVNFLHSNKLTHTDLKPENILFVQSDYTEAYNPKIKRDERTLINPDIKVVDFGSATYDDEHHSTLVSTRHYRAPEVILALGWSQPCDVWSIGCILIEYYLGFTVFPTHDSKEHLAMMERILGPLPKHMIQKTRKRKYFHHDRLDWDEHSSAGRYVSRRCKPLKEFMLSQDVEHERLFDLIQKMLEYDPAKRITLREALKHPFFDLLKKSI
T1 sequence (Q9HAZ1 whole entry): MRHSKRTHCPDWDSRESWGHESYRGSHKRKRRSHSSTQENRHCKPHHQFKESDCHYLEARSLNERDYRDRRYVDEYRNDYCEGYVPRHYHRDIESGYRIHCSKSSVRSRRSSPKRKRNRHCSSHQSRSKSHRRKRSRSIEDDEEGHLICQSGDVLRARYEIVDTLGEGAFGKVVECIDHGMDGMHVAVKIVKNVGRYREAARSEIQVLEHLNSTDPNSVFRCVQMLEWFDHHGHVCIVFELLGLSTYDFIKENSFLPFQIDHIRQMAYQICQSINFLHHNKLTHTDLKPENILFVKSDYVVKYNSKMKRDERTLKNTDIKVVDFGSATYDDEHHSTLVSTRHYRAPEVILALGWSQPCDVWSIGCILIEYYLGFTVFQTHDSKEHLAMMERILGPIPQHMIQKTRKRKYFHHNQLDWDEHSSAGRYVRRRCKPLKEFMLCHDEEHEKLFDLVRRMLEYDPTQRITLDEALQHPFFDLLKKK
Dual specificity protein kinase CLK2, sequence (P49760 whole entry): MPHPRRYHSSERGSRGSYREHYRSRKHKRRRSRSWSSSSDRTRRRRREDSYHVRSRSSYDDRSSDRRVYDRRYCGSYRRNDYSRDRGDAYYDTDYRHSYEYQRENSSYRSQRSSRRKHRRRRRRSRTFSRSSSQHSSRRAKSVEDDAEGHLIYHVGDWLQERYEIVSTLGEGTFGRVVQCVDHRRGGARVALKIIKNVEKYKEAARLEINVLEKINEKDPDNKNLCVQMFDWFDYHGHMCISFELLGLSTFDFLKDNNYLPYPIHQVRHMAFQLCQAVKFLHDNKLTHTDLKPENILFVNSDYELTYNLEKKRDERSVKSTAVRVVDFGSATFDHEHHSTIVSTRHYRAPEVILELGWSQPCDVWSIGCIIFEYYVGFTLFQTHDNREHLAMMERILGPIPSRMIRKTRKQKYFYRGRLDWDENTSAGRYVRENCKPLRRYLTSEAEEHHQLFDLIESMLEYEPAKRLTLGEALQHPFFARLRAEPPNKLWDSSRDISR
Dual specificity tyrosine-phosphorylation-regulated kinase 1B, sequence (Q9Y463 whole entry): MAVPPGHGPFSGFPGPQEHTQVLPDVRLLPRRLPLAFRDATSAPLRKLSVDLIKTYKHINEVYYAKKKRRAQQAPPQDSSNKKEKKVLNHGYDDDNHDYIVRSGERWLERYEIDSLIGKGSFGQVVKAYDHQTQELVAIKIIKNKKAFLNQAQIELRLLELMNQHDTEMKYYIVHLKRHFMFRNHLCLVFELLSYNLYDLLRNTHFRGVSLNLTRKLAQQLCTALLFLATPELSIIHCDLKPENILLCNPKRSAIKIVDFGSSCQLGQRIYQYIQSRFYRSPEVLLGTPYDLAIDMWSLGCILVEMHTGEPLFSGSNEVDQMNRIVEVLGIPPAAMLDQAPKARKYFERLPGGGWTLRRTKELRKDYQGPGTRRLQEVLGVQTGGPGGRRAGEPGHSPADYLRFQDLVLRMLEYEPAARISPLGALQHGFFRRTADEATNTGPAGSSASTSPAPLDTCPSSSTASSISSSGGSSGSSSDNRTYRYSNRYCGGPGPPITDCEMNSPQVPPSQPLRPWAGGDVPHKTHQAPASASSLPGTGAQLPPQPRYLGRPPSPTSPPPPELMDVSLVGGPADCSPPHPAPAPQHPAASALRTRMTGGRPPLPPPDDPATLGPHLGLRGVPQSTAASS

- IC50 [1]: Not Active
- IC50 [2]: Not Active
SMILES: c1cnc(-c2ccc3c(c2)OCO3)nc1

- IC50 ([1]; read-out: IC50): 5.2 µM
SMILES: Fc1ccc(CNc2ccnc(-c3ccc4c(c3)OCO4)n2)cc1Cl

- IC50 ([1]; read-out: IC50): 8.2 µM
SMILES: Fc1cc(CNc2ccnc(-c3ccc4c(c3)OCO4)n2)cc(F)c1F

- IC50 [3]: 137 nM
- IC50 [4]: 102 nM
- IC50 [5]: 107 nM
- IC50 ([1]; read-out: IC50): 0.13 µM
- IC50 ([2]; read-out: IC50): 520 nM
- IC50 [6]: 345 nM
- IC50 [7]: 86 nM
SMILES: FC(F)(F)c1cc(Br)cc(Nc2nccc(-c3ccc4c(c3)OCO4)n2)c1

- IC50 ([1]; read-out: IC50): 14.1 µM
SMILES: N#Cc1cccc(-c2nccc(NCc3ccccc3)n2)c1

- IC50 ([1]; read-out: IC50): 23.2 µM
SMILES: c1cc(CNc2ccnc(-c3ccc4c(c3)OCO4)n2)ccn1

- IC50 [3]: 18 nM
- IC50 [4]: 13 nM
- IC50 [5]: 11 nM
- IC50 ([1]; read-out: IC50): 0.04 µM
- IC50 ([2]; read-out: IC50): 70 nM
- IC50 [6]: 41 nM
- IC50 [7]: 9 nM
SMILES: Brc1cc(Br)cc(CNc2nccc(-c3ccc4c(c3)OCO4)n2)c1

- IC50 ([1]; read-out: IC50): 13 µM
SMILES: Fc1cc(CNc2ccnc(-c3ccc4c(c3)OCO4)n2)ccc1Cl

- IC50 [3]: 829 nM
- IC50 [4]: 1600 nM
- IC50 [5]: 1430 nM
- IC50 ([1]; read-out: IC50): 0.29 µM
- IC50 ([2]; read-out: IC50): 2070 nM
- IC50 [6]: 1900 nM
- IC50 [7]: 1290 nM
SMILES: c1cncc(CNc2ccnc(-c3ccc4cn[nH]c4c3)n2)c1

- IC50 [1]: Not Active
- IC50 [2]: Not Active
SMILES: COc1ccc(CNc2ccnc(-c3ccc(N(C)C)cc3)n2)cc1

- IC50 [3]: 179 nM
- IC50 [4]: 964 nM
- IC50 [5]: 349 nM
- IC50 ([1]; read-out: IC50): 0.15 µM
- IC50 ([2]; read-out: IC50): 650 nM
- IC50 [6]: 665 nM
- IC50 [7]: 574 nM
SMILES: c1cncc(CNc2ccnc(-c3ccc4[nH]ncc4c3)n2)c1

- IC50 ([1]; read-out: IC50): 9.2 µM
- IC50 [2]: Not Active
SMILES: Brc1cc(Br)cc(CNc2ccnc(-c3ccc4c(c3)OCO4)n2)c1

- IC50 ([1]; read-out: IC50): 8.2 µM
SMILES: Fc1cncc(CNc2ccnc(-c3ccc4c(c3)OCO4)n2)c1

- IC50 ([1]; read-out: IC50): 8.2 µM
SMILES: Brc1cncc(CNc2ccnc(-c3ccc4c(c3)OCO4)n2)c1

- IC50 ([1]; read-out: IC50): 4.1 µM
- IC50 [2]: Not Active
SMILES: Clc1cc(Cl)cc(CNc2ccnc(-c3ccc4c(c3)OCO4)n2)c1

- IC50 [3]: > 10000 nM
- IC50 [4]: 5460 nM
- IC50 [5]: 4650 nM
- IC50 ([1]; read-out: IC50): 3.68 µM
- IC50 ([2]; read-out: IC50): 5820 nM
- IC50 [6]: > 10000 nM
- IC50 [7]: 3860 nM
SMILES: COc1cccc(-c2ccnc(NCc3ccc(Cl)c(Cl)c3)n2)c1

- IC50 ([1]; read-out: IC50): 13 µM
SMILES: Clc1ccc(CNc2ccnc(-c3cccnc3)n2)cc1Cl

- IC50 ([1]; read-out: IC50): 10.4 µM
SMILES: Fc1ccc(CNc2ccnc(-c3ccc4c(c3)OCO4)n2)cc1F

SMILES: c1cncc(CNc2nccc(-c3ccc4cn[nH]c4c3)n2)c1
- IC50 ([1]; read-out: IC50): 0.04 µM
- IC50 ([2]; read-out: IC50): 210 nM

- IC50 [3]: 871 nM
- IC50 [4]: 277 nM
- IC50 [5]: 558 nM
- IC50 ([1]; read-out: IC50): 0.29 µM
- IC50 ([2]; read-out: IC50): 2070 nM
- IC50 [6]: 1090 nM
- IC50 [7]: 319 nM
SMILES: COc1ccc(-c2ccnc(NCc3ccc(Cl)cc3)n2)cc1

- IC50 [1]: Not Active
- IC50 [2]: Not Active
SMILES: CN(C)c1ccc(-c2nccc(NCc3ccc(Cl)cc3)n2)cc1

- IC50 [3]: 411 nM
- IC50 [4]: 76 nM
- IC50 [5]: 203 nM
- IC50 ([1]; read-out: IC50): 0.21 µM
- IC50 ([2]; read-out: IC50): 1160 nM
- IC50 [6]: 409 nM
- IC50 [7]: 92 nM
SMILES: COc1ccc(-c2ccnc(NCc3ccc(Cl)c(Cl)c3)n2)cc1

- IC50 ([1]; read-out: IC50): 16.4 µM
SMILES: Clc1ccc(CNc2ccnc(-c3cccnc3)n2)cc1

- IC50 [1]: Not Active
- IC50 [2]: Not Active
SMILES: Cc1noc(C)c1-c1ncccn1

- IC50 [3]: 514 nM
- IC50 [4]: 1780 nM
- IC50 [5]: 2350 nM
- IC50 ([2]; read-out: IC50): 4630 nM
SMILES: Clc1ccc(CNc2ccnc(-c3ccc4[nH]ncc4c3)n2)cc1Cl

- IC50 [1]: Not Active
- IC50 [2]: Not Active
SMILES: CN(C)c1ccc(-c2nccc(NCc3ccccc3)n2)cc1

- IC50 ([1]; read-out: IC50): 15.8 µM
SMILES: COc1cccc(-c2nccc(NCc3ccccc3)n2)c1

- IC50 ([1]; read-out: IC50): 23.2 µM
- IC50 ([2]; read-out: IC50): 26000 nM
SMILES: c1ccc(CNc2ccnc(-c3ccc4c(c3)OCO4)n2)cc1

- IC50 ([1]; read-out: IC50): 14.6 µM
- IC50 [2]: Not Active
SMILES: COc1cccc(-c2nccc(NCc3ccc(Cl)c(Cl)c3)n2)c1

- IC50 ([1]; read-out: IC50): 0.063 µM
SMILES: c1cncc(CNc2ccnc(-c3ccc4c(c3)OCO4)n2)c1

- IC50 ([1]; read-out: IC50): 41.2 µM
SMILES: c1ccc2ncc(CNc3ccnc(-c4ccc5c(c4)OCO5)n3)cc2c1

- IC50 ([1]; read-out: IC50): 16.4 µM
SMILES: COc1cccc(-c2ncccn2)c1

SMILES: Clc1ccc(CNc2ccnc(-c3ccc4c(c3)OCO4)n2)cn1
- IC50 ([1]; read-out: IC50): 29.2 µM
- IC50 ([2]; read-out: IC50): 29200 nM

SMILES: c1cncc(CNc2cc(-c3ccc4c(c3)OCO4)ncn2)c1
- IC50 ([1]; read-out: IC50): 6.54 µM
- IC50 ([2]; read-out: IC50): 16400 nM

- IC50 [1]: Not Active
- IC50 [2]: Not Active
SMILES: COc1ccc(-c2nccc(NCc3ccc(C)cc3)n2)cc1

- IC50 ([1]; read-out: IC50): 0.79 µM
SMILES: c1cncc(-c2cc(-n3ccnc3)ncn2)c1

- IC50 [1]: Not Active
- IC50 [2]: Not Active
SMILES: Cc1ccc(CNc2ccnc(-c3c(C)noc3C)n2)cc1

- IC50 ([1]; read-out: IC50): 9.2 µM
SMILES: c1ccc(CNc2ccnc(-c3ccc4c(c3)OCO4)n2)nc1

- IC50 ([1]; read-out: IC50): 13 µM
SMILES: Fc1ccc(CNc2ccnc(-c3ccc4c(c3)OCO4)n2)cc1Br
